# According to patent publication US20250320193A1, “OXOISOINDOLINYL SUBSTITUTED PIPERIDINEDIONE DERIVATIVE AND USE THEREOF” (GLUETACS THERAPEUTICS (SHANGHAI) CO., LTD., priority 2022, published 2025):
# Columns and labels:
# IKZF3 = IKZF3 (Homo sapiens (Human), UniProt Q96SW2+Q9UKT9); test: Western blot, substrate protein expression in hPBMC: IKZF3; format: cell-based; conditions: for substrate protein remaining % IKZF3: hPBMC, compound 500 nM, 24 hours, Western blot
# Method in brief: (§1)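 hPBMC, 1×10^6 cells/mL, 24 h compound exposure; RIPA lysis, BCA protein assay, SDS-PAGE, NC membrane immunoblot. Densitometry vs internal control → % protein remaining; degradation % = 100% − remaining; DC50 = conc. at 50% of DMSO band signal.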
# GSPT1 = GSPT1 (Homo sapiens (Human), UniProt P15170+Q96SW2); test: Western blot, substrate protein expression in hPBMC: GSPT1; format: cell-based; conditions: for substrate protein remaining % GSPT1: hPBMC, compound 500 nM, 24 hours, Western blot; for concentration at which GSPT1 protein was clearly/significantly degraded (Western blot, FIG. 1): hPBMCs
# Method in brief: as §1
# IKZF1 = IKZF1 (Homo sapiens (Human), UniProt Q13422+Q96SW2); test: Western blot, substrate protein expression in hPBMC: IKZF1; format: cell-based; conditions: for substrate protein remaining % IKZF1: hPBMC, compound 500 nM, 24 hours, Western blot
# Method in brief: as §1
# [1] = target: human Cereblon WT GST-tagged protein (Homo sapiens (Human), UniProt Q96SW2); test: CRBN-binding affinity, HTRF (CEREBLON BINDING kit, CISBIO); conditions: HTRF inhibitory activity
# Method in brief: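 HTRF competition format: test compound displaces Thalidomide-Red from GST-tagged human Cereblon WT, detected with a Eu-labelled anti-GST antibody. Percent CRBN binding inhibition was derived from the 620 nm signal, normalized to solvent-control and protein-free blank wells.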
# Sequence of IKZF1 (Q13422 whole entry): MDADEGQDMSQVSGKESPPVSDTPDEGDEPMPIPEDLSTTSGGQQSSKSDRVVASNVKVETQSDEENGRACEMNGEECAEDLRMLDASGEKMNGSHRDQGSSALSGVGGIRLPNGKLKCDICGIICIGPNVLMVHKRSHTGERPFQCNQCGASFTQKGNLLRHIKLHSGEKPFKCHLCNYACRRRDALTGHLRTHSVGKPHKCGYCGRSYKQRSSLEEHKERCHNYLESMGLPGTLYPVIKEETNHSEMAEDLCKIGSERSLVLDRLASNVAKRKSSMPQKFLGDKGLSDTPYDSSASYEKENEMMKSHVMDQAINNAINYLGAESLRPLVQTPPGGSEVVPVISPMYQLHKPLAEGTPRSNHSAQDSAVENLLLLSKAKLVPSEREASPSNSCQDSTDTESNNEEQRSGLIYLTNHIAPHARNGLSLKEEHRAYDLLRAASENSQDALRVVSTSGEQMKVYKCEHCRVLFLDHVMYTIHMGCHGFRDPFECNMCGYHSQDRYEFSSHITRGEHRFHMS
# Sequence of IKZF1 (Q96SW2 whole entry): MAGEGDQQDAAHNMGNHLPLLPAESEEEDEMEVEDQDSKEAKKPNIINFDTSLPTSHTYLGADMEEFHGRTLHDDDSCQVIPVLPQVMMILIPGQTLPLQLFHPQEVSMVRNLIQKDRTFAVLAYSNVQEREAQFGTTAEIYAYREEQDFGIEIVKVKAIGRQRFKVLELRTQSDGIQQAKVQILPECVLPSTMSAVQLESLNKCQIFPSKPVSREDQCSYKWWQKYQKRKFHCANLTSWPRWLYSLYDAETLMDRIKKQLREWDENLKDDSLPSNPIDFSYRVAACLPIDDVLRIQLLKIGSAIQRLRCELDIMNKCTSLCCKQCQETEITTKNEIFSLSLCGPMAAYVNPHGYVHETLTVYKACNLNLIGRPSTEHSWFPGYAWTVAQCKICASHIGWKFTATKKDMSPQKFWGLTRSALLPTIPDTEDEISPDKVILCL
# Sequence of IKZF1 (Q16531 whole entry partner): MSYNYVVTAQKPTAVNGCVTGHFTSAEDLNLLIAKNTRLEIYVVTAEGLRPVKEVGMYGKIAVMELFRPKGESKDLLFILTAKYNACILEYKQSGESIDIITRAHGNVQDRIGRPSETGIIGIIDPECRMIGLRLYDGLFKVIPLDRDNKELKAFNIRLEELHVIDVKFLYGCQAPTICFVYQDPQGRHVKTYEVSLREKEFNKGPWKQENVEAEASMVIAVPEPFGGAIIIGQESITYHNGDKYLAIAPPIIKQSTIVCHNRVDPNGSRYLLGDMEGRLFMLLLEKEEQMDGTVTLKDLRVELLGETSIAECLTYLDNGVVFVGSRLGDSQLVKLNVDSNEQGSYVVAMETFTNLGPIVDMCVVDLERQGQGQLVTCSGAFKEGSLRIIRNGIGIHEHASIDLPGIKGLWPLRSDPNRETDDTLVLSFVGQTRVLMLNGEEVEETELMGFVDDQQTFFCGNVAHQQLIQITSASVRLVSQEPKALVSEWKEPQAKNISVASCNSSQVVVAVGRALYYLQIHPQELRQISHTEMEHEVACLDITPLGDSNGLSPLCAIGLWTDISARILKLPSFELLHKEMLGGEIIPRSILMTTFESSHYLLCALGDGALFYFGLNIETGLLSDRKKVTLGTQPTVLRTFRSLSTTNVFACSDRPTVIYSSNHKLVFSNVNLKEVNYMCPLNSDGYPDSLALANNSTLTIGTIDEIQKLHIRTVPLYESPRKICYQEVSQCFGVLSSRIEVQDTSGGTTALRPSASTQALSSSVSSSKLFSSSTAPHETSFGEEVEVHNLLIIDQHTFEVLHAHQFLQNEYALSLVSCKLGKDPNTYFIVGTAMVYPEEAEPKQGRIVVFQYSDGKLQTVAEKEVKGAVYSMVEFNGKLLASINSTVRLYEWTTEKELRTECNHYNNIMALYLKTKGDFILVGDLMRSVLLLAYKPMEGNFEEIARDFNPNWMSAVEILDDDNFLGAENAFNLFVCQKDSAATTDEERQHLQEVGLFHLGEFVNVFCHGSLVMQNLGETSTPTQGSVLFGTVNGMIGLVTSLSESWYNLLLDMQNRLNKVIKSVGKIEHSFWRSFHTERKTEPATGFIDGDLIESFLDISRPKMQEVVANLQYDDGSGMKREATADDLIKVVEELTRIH
# Sequence of GSPT1 (P15170 whole entry): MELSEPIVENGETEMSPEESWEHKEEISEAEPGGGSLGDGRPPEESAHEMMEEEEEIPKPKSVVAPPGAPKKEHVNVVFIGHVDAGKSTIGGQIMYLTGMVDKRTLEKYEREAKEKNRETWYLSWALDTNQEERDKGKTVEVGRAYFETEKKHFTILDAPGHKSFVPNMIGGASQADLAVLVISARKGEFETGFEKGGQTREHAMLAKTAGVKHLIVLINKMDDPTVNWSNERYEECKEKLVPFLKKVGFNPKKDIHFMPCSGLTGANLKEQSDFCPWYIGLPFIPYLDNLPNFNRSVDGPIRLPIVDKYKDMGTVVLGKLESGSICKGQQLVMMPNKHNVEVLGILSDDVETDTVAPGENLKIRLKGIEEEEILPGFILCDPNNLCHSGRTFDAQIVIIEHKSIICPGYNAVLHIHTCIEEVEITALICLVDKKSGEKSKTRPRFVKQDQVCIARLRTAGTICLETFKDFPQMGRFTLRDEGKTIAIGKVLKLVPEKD
# Sequence of GSPT1 (Q96SW2 whole entry): as the sequence (Q96SW2 whole entry) above
# Sequence of GSPT1 (Q16531 whole entry partner): as the sequence (Q16531 whole entry partner) above
# Sequence of human Cereblon WT GST-tagged protein (Q96SW2 whole entry): as the sequence (Q96SW2 whole entry) above
# Sequence of IKZF3 (Q9UKT9 whole entry): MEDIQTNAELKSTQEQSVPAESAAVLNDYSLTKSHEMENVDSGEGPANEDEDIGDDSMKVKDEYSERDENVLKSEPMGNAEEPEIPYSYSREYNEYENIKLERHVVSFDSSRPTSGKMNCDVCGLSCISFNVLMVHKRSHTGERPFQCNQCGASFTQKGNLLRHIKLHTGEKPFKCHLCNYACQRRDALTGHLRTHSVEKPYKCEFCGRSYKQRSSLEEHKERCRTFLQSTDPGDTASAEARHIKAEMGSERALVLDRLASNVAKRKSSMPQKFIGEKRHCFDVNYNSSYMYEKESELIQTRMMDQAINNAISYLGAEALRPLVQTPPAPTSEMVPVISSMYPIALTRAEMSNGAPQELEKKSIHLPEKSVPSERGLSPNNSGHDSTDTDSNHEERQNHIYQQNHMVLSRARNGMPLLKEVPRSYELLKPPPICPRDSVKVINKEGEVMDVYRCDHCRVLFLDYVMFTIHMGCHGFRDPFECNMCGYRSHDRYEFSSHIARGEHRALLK
# Sequence of IKZF3 (Q96SW2 whole entry): as the sequence (Q96SW2 whole entry) above
# Sequence of IKZF3 (Q16531 whole entry partner): as the sequence (Q16531 whole entry partner) above
SMILES,substrate protein remaining % IKZF3 (IKZF3),"concentration at which IKZF3 protein was significantly degraded (Western blot, FIG. 1) (IKZF3; hPBMCs)",substrate protein remaining % GSPT1 (GSPT1),substrate protein remaining % IKZF1 (IKZF1),"concentration at which IKZF1 protein was significantly degraded (Western blot, FIG. 1) (IKZF1; hPBMCs)",IC50 [1] [nM],"concentration at which GSPT1 protein was clearly/significantly degraded (Western blot, FIG. 1) (GSPT1)"
"O=C1CCC(N2Cc3cc(CCCN4CCN(C(c5ccccc5)c5ccccc5)CC4)ccc3C2=O)C(=O)N1 (stereo not drawn) [GT-05688, 3-(5-(3-(4-benzhydrylpiperazin-1-yl)propyl)-1-oxoisoindolin-2-yl)piperidine-2,6-dione]",A (A represents 0% ≤ substrate protein remaining % ≤ 50%),below 50 nM,B (B represents substrate protein remaining % > 50%),A (A represents 0% ≤ substrate protein remaining % ≤ 50%),below 50 nM,1000 to 1900,–
"O=C1CCC(N2Cc3cc(C(=O)N4CCC(N(c5ccccc5)c5ccccn5)CC4)cc(F)c3C2=O)C(=O)N1 (stereo not drawn) [GT-05924, 3-(7-fluoro-1-oxo-5-(4-(phenyl(pyridin-2-yl)amino)piperidine-1-carbonyl)isoindolin-2-yl)piperidine-2,6-dione]",B (B represents substrate protein remaining % > 50%),–,A (A represents 0% ≤ substrate protein remaining % ≤ 50%),B (B represents substrate protein remaining % > 50%),–,500 to 1000,–
"O=C1CCC(N2Cc3cc(C(=O)N4CCN(C(c5ccccc5)c5cccnc5)CC4)ccc3C2=O)C(=O)N1 (stereo not drawn) [GT-06142, 3-(1-oxo-5-(4-(phenyl(pyridin-3-yl)methyl)piperazine-1-carbonyl)isoindolin-2-yl)piperidine-2,6-dione]",B (B represents substrate protein remaining % > 50%),–,A (A represents 0% ≤ substrate protein remaining % ≤ 50%),B (B represents substrate protein remaining % > 50%),–,500 to 1000,–
"O=C1CCC(N2Cc3cccc(CN4CCN(C(c5cccc(F)c5)c5cccc(F)c5)CC4)c3C2=O)C(=O)N1 (stereo not drawn) [GT-06117, 3-(7-((4-(bis(3-fluorophenyl)methyl)piperazin-1-yl)methyl)-1-oxoisoindolin-2-yl)piperidine-2,6-dione]",B (B represents substrate protein remaining % > 50%),–,A (A represents 0% ≤ substrate protein remaining % ≤ 50%),B (B represents substrate protein remaining % > 50%),–,500 to 1000,–
"O=C1CCC(N2Cc3cc(CN4CC5CN(C(c6ccccc6)c6ccccc6)CC5C4)ccc3C2=O)C(=O)N1 (stereo not drawn) [GT-06050, 3-(5-((5-benzhydrylhexahydropyrrolo[3,4-c]pyrrol-2 (1H)-yl)methyl)-1-oxoisoindolin-2-yl)piperidine-2,6-dione]",B (B represents substrate protein remaining % > 50%),–,A (A represents 0% ≤ substrate protein remaining % ≤ 50%),B (B represents substrate protein remaining % > 50%),–,< 500,–
"CC1CN(Cc2cc3c(cc2F)C(=O)N(C2CCC(=O)NC2=O)C3)CC(C)N1C(c1ccccc1)c1ccccc1 (stereo not drawn) [GT-05966, 3-(5-((4-benzhydryl-3,5-dimethylpiperazin-1-yl)methyl)-6-fluoro-1-oxoisoindolin-2-yl)piperidine-2,6-dione]",B (B represents substrate protein remaining % > 50%),–,A (A represents 0% ≤ substrate protein remaining % ≤ 50%),B (B represents substrate protein remaining % > 50%),–,1000 to 1900,–
"O=C1CCC(N2Cc3c(CN4CCC(N(c5ccccc5)c5ccccn5)CC4)cccc3C2=O)C(=O)N1 (stereo not drawn) [GT-04948, 3-(1-oxo-4-((4-(phenyl(pyridin-2-yl)amino)piperidin-1-yl)methyl)isoindolin-2-yl)piperidine-2,6-dione]",B (B represents substrate protein remaining % > 50%),–,A (A represents 0% ≤ substrate protein remaining % ≤ 50%),B (B represents substrate protein remaining % > 50%),–,500 to 1000,< 500 nM
"CC1CN(C(c2ccccc2)c2ccccc2)CC(C)N1Cc1ccc2c(c1)CN(C1CCC(=O)NC1=O)C2=O (stereo not drawn) [GT-03723, 3-(5-((4-benzhydryl-2,6-dimethylpiperazin-1-yl)methyl)-1-oxoisoindolin-2-yl)piperidine-2,6-dione]",B (B represents substrate protein remaining % > 50%),–,A (A represents 0% ≤ substrate protein remaining % ≤ 50%),B (B represents substrate protein remaining % > 50%),–,500 to 1000,–
"CC1CN(Cc2ccc3c(c2F)CN(C2CCC(=O)NC2=O)C3=O)CC(C)N1C(c1ccccc1)c1ccccc1 (stereo not drawn) [GT-05965, 3-(5-((4-benzhydryl-3,5-dimethylpiperazin-1-yl)methyl)-4-fluoro-1-oxoisoindolin-2-yl)piperidine-2,6-dione]",A (A represents 0% ≤ substrate protein remaining % ≤ 50%),–,A (A represents 0% ≤ substrate protein remaining % ≤ 50%),A (A represents 0% ≤ substrate protein remaining % ≤ 50%),–,1000 to 1900,–
"C[C@@H]1CN(C(c2ccccc2)c2ccccc2)CCN1Cc1ccc2c(c1F)CN(C1CCC(=O)NC1=O)C2=O (stereo partly drawn) [GT-03574, 3-(5-(((R)-4-benzhydryl-2-methylpiperazin-1-yl)methyl)-4-fluoro-1-oxoisoindolin-2-yl)piperidine-2,6-dione]",B (B represents substrate protein remaining % > 50%),–,A (A represents 0% ≤ substrate protein remaining % ≤ 50%),B (B represents substrate protein remaining % > 50%),–,500 to 1000,–
"O=C1CCC(N2Cc3cc(C(=O)N4CCN(C(c5ccccc5)c5ccccn5)CC4)ccc3C2=O)C(=O)N1 (stereo not drawn) [GT-05854, 3-(1-oxo-5-(4-(phenyl(pyridin-2-yl)methyl)piperazine-1-carbonyl)isoindolin-2-yl)piperidine-2,6-dione]",B (B represents substrate protein remaining % > 50%),–,A (A represents 0% ≤ substrate protein remaining % ≤ 50%),B (B represents substrate protein remaining % > 50%),–,1000 to 1900,–
"O=C1CCC(N2Cc3c(ccc(CN4CC5CCC4CN5C(c4ccccc4)c4ccccc4)c3F)C2=O)C(=O)N1 (stereo not drawn) [GT-04163, 3-(5-((5-benzhydryl-2,5-diazabicyclo[2.2.2]octan-2-yl)methyl)-4-fluoro-1-oxoisoindolin-2-yl)piperidine-2,6-dione]",A (A represents 0% ≤ substrate protein remaining % ≤ 50%),–,A (A represents 0% ≤ substrate protein remaining % ≤ 50%),B (B represents substrate protein remaining % > 50%),–,500 to 1000,–
"CC1(C)CN(Cc2cc3c(cc2F)C(=O)N(C2CCC(=O)NC2=O)C3)CCN1C(c1ccccc1)c1ccccc1 (stereo not drawn) [GT-05960, 3-(5-((4-benzhydryl-3,3-dimethylpiperazin-1-yl)methyl)-6-fluoro-1-oxoisoindolin-2-yl)piperidine-2,6-dione]",A (A represents 0% ≤ substrate protein remaining % ≤ 50%),–,A (A represents 0% ≤ substrate protein remaining % ≤ 50%),B (B represents substrate protein remaining % > 50%),–,1000 to 1900,–
"O=C1CCC(N2Cc3cc(C(=O)N4CCN(C(c5ccccc5)c5ccccc5)CC4)ccc3C2=O)C(=O)N1 (stereo not drawn) [GT-05689, 3-(5-(4-benzhydrylpiperazine-1-carbonyl)-1-oxoisoindolin-2-yl)piperidine-2,6-dione]",B (B represents substrate protein remaining % > 50%),–,A (A represents 0% ≤ substrate protein remaining % ≤ 50%),B (B represents substrate protein remaining % > 50%),–,500 to 1000,below 50 nM
"O=C1CCC(N2Cc3cc(C(=O)N4CC5CCC(C4)N5C(c4ccccc4)c4ccccc4)ccc3C2=O)C(=O)N1 (stereo not drawn) [GT-05980, 3-(5-(8-benzhydryl-3,8-diazabicyclo[3.2.1]octane-3-carbonyl)-1-oxoisoindolin-2-yl)piperidine-2,6-dione]",B (B represents substrate protein remaining % > 50%),–,A (A represents 0% ≤ substrate protein remaining % ≤ 50%),A (A represents 0% ≤ substrate protein remaining % ≤ 50%),–,500 to 1000,–
"O=C1CCC(N2Cc3cc(CN4CCN(C(c5ccccn5)c5ccccn5)CC4)ccc3C2=O)C(=O)N1 (stereo not drawn) [GT-04383, 3-(5-((4-(di(pyridin-2-yl)methyl)piperazin-1-yl)methyl)-1-oxoisoindolin-2-yl)piperidine-2,6-dione]",B (B represents substrate protein remaining % > 50%),–,A (A represents 0% ≤ substrate protein remaining % ≤ 50%),B (B represents substrate protein remaining % > 50%),–,< 500,–
"CC1CN(C(c2ccccc2)c2ccccc2)CC(C)N1C(=O)c1ccc2c(c1)CN(C1CCC(=O)NC1=O)C2=O (stereo not drawn) [GT-05920, 3-(5-(4-benzhydryl-2,6-dimethylpiperazine-1-carbonyl)-1-oxoisoindolin-2-yl)piperidine-2,6-dione]",B (B represents substrate protein remaining % > 50%),–,A (A represents 0% ≤ substrate protein remaining % ≤ 50%),B (B represents substrate protein remaining % > 50%),–,< 500,–
